± gives the standard deviation of the averaged measurements.
Assays:
[1] = tested on: Homo sapiens (human subject panel, olfactory perception); experiment: perceived odor familiarity rating (rating 0-100); higher = more familiar
Protocol: (§1)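 Human olfactory psychophysics. 55 healthy subjects (after excluding 6 low performers) sniffed 1 mL of each odorant diluted in paraffin oil (vials, two dilutions per molecule, 20 molecules presented twice). Each subject rated intensity, pleasantness and familiarity on a 0-100 slider, starting at 50 and required to move. Ratings were given only when the subject reported detecting a smell; per-subject ratings are averaged over subjects.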

[2] = tested on: Homo sapiens (human subject panel, olfactory perception); experiment: perceived odor intensity rating (rating 0-100); higher = stronger perceived smell
Protocol: as §1

[3] = tested on: Homo sapiens (human subject panel, olfactory perception); experiment: perceived odor pleasantness rating (rating 0-100); higher = more pleasant
Protocol: as §1

[4] = odor dilution in paraffin oil: 1/1,000
[5] = odor dilution in paraffin oil: 1/100,000
[6] = odor dilution in paraffin oil: 1/10
[7] = odor dilution in paraffin oil: 1/10,000,000

SMILES	perceived odor familiarity rating [1, 4]	perceived odor familiarity rating [1, 5]	perceived odor intensity rating [2, 4]	perceived odor intensity rating [2, 5]	perceived odor pleasantness rating [3, 4]	perceived odor pleasantness rating [3, 5]	perceived odor familiarity rating [1, 6]	perceived odor intensity rating [2, 6]	perceived odor pleasantness rating [3, 6]	perceived odor familiarity rating [1, 7]	perceived odor intensity rating [2, 7]	perceived odor pleasantness rating [3, 7]
OCCCCCc1ccccc1 [5-Phenyl-1-pentanol]	49.2 ± 29	34.5 ± 32	53.4 ± 30	17.2 ± 22	53.6 ± 22	56.8 ± 23						
CC(=O)CC/C=C(\C)CCC=C(C)C [6,10-Dimethyl-5,9-undecadien-2-one]	43.6 ± 26	40.3 ± 30	42.1 ± 30	13 ± 12	41.8 ± 23	53 ± 21						
CC(=O)c1cc2c(cc1C)C(C)(C)C(C)CC2(C)C (centres undefined) [6-Acetyl-1,1,2,4,4,7-Hexamethyltetralin]	49.1 ± 31		29.8 ± 28		67.7 ± 21		57.3 ± 30	51.7 ± 28	67.4 ± 24			
CC(=O)CCC=C(C)C [6-Methyl-5-hepten-2-one]	51.9 ± 31	31.9 ± 29	70.7 ± 23	22.4 ± 25	48.6 ± 30	52.6 ± 23						
Cc1ccc2oc(=O)ccc2c1 [6-Methylcoumarin]	55.2 ± 30		62.9 ± 27		53.9 ± 28		48.9 ± 32	80.1 ± 19	40.8 ± 32			
CCCCCC(=O)CCCCC [6-Undecanone]	43.3 ± 31	32.9 ± 32	43.3 ± 30	8.22 ± 16	49.5 ± 27	52.7 ± 29						
Cc1ccc2ncccc2c1 [6-methyl quinoline]	44 ± 30	44.3 ± 31	68.2 ± 27	50.9 ± 30	36.7 ± 27	60.4 ± 23						
COc1ccc2ccc(=O)oc2c1 [7-Methoxycoumarin]	47.2 ± 29		42.3 ± 24		59.3 ± 25		52 ± 30	62 ± 26	62 ± 25			
CC1(C)C2CC=C(C=O)C1C2 [(1R)-(-)-Myrtenal]		48.3 ± 31		62.4 ± 26		40.3 ± 25				40.7 ± 33	33.8 ± 31	50.1 ± 24
CC1CC[C@H](C(C)C)[C@@H](O)C1 (some centres undefined) [( + )-menthol]	51.8 ± 29		51 ± 31		52 ± 24		73.7 ± 26	83.4 ± 14	55.3 ± 28			
C=C(C)[C@@H]1CC[C@@H](C)C[C@H]1O [(-)-Isopulegol]	37.8 ± 32		24.4 ± 27		45.1 ± 24		73.2 ± 29	81.1 ± 17	56.9 ± 27			
CC[C@H](C)O [(S)-( + )-2-butanol]	33.1 ± 30	40.9 ± 30	16.4 ± 22	24.7 ± 27	50.2 ± 22	50.7 ± 21						
CCOC(C)OCC [Acetal]	44.7 ± 28	35.2 ± 28	48.7 ± 34	43.1 ± 33	42.5 ± 24	47.9 ± 22						
COc1ccc(C(C)=O)cc1 [Acetanisole]	50 ± 26		44.1 ± 28		68.8 ± 19		56.5 ± 30	82.2 ± 16	53.3 ± 28			
COc1cc(C(C)=O)ccc1O [Acetovanillone]	41 ± 30		35 ± 32		55.1 ± 21		47.6 ± 29	64 ± 28	45.7 ± 25			
O=C(O)CCCCC(=O)O [Adipic acid]	34 ± 29		14 ± 16		38.5 ± 18		43.5 ± 27	35.7 ± 28	52.7 ± 24			
C=CCOC(=O)C(CC)CC [Allyl 2-ethylbutyrate]	51.6 ± 29	44.1 ± 30	68.5 ± 28	33.9 ± 28	51.5 ± 28	67 ± 19						
C=CCOC(=O)c1ccco1 [Allyl 2-furoate]	40.9 ± 29	39.9 ± 27	60.6 ± 29	27 ± 28	31.9 ± 23	41.8 ± 21						
C=CCSCC=C [Allyl Sulfide]		40.8 ± 30		43.2 ± 35		37.2 ± 25				35.4 ± 25	27.3 ± 24	42.7 ± 23
C=CCOC(=O)c1ccccc1N [Allyl anthranilate]	45.9 ± 29	33.4 ± 26	55.1 ± 31	16.4 ± 19	52 ± 27	50.7 ± 25						
C=CCOC(=O)CCC [Allyl butyrate]	45.2 ± 31	49.2 ± 28	78.6 ± 20	54.3 ± 31	23.7 ± 24	33.2 ± 24						
C=CCOC(=O)/C=C/c1ccccc1 [Allyl cinnamate]	40.5 ± 28	44 ± 27	57 ± 32	46.8 ± 30	52.4 ± 28	52.4 ± 24						
C=CCOC(=O)CCC1CCCCC1 [Allyl cyclohexanepropionate]	58.7 ± 29	32.5 ± 27	57.9 ± 25	30.6 ± 30	60.9 ± 23	54.7 ± 24						
C=CCOC(=O)CCCCCC [Allyl heptanoate]	57.9 ± 31	37.8 ± 29	53.9 ± 31	22.2 ± 26	73.7 ± 20	55.4 ± 23						
C=CCOC(=O)Cc1ccccc1 [Allyl phenylacetate]		44 ± 25		33.8 ± 29		33 ± 27				29.4 ± 16	25.7 ± 25	49.8 ± 28
C=CCOC(=O)/C(C)=C/C [Allyl tiglate]	49.6 ± 31	46.1 ± 32	71.9 ± 24	48 ± 29	41.1 ± 28	44.3 ± 23						
CC1(C)CCC[C@]2(C)[C@H]3CCO[C@]3(C)CC[C@@H]12 [Ambrox]	60.9 ± 28		50.1 ± 30		62.8 ± 23		61 ± 27	73.6 ± 23	55.7 ± 27			
CCCCCOC(=O)CCC [Amyl butyrate]	51.7 ± 32	32.9 ± 32	59.2 ± 26	20.8 ± 25	55.8 ± 28	47.7 ± 30						
CCCCCOC(=O)CCCCC [Amyl hexanoate]	38.1 ± 30		28.8 ± 29		53.8 ± 27		39.1 ± 30	67.3 ± 25	44.6 ± 28			
